Experimental data: publication PMC8152814, “The modulatory role of sulfated and non-sulfated small molecule heparan sulfate-glycomimetics in endothelial dysfunction: absolute structural clarification, molecular docking and simulated dynamics, SAR analyses and ADMET studies” (RSC Medicinal Chemistry, 2021)

Columns and labels:
Format in all cases: cell-based, human
Conditions in all cases: averaged % of increase (+) or decrease (−) compared to control (FFA induced oxidatively stressed endothelial cells), n = 3
nitric oxide (NO) = assay: NO release assay (DAF-2) in FFA-stressed cells
Source text: (§1) The assays focused on the production of nitric oxide (NO) and the upregulation of nitric oxide synthase (eNOS), the production of reactive oxygen species (ROS) and the activity of nicotinamide adenine dinucleotide phosphate (NADPH) oxidase (Table 2). From the hypothesised model of heparan sulfate-glycomimetic activity,[17] the glycomimetics are proposed to attenuate the binding of HGF to the cMET receptor. This disruption to MET-receptor activation is proposed to modulate intracellular phosphorylation leading to an upregulation of eNOS and increased output of extracellular NO. […] Overall, the cross examination of NO output and reduction of ROS was used to determine the therapeutic action of the triaged glycomimetics α-4, R-10, S-10 and β-5, as well as 3 non-sulfated intermediates α-2, α-3 and β-3, on free fatty acid (FFA) induced, oxidatively stressed endothelial cell cultures (Table 2).
(§2) Biological assay and AMDET experimental details […]
(§3) Preparation of FFA-albumin complexes and cell treatments
(§4) To generate the in vitro model of oxidative stress, sodium palmitate was bound to bovine serum albumin (BSA) as outlined by Chavez and Summers,S2 with modifications. Sodium palmitate (FFA) was dissolved in EtOH at 60 °C and diluted 1:100 in M199 media supplemented with 2% fatty acid-free bovine serum albumin (BSA) and incubated for 1 h at 37 °C. HepG2 cells were treated with 1 μmol/L of the synthesized HS-glycomimetics in the presence of palmitate (100 μmol/L) for 3 h or pre-treated with glycomimetics for 12 h followed by 3 h palmitate (100 μmol/L). Control cells were incubated in serum free M199 containing 2% (wt/vol) fatty acid-free BSA.
NO release assay and Quantification of ROS production
NO release was determined using diaminofluorescein-2 (DAF-2).S3 The cells were washed with PBS and incubated with L-arginine (100 μmol/L in PBS) for 5 min at 37 °C before incubation with DAF-2 (0.1 μmol/L) for 2 min, followed by the calcium ionophore calimycin (A23187, 1 μmol L) for 30 min. L-NAME (100 μmol/L), a nitric oxide inhibitor (NOS), was also added 20 min before the addition of L-arginine in some experiments to determine the involvement of NOS. DAF-2 fluorescence (arbitrary units, AU) was quantified using a microplate reader (BioTek) with excitation and emission wavelengths of 485 nm and 540 nm, respectively. The auto-fluorescence was subtracted from each value. […]
(§5) H2DCFDA, Sigma) for 30 min at 37 °C, and the level of fluorescence was determined (excitation 490 nm; emission 540 nm) using a microplate reader (BioTek).
(§6) The level of NADPH-enhanced superoxide anions (O2•−) in HepG2 homogenates was determined by lucigenin-enhanced chemiluminescence.S4 Following the various treatment conditions, cells were homogenized in a buffer (20 mmol/L H2KPO4 and 1 mmol/L EDTA supplemented with aprotinin, leuprotinin, pepstatin and PMSF). The total protein quantified using the Bicinchoninic acid (BCA) assay (Pierce Biotechnology). To 50 μg of total protein, NADPH (100 μmol/L) was added in a total volume of 500 μL, with lucigenin (5 μmol/L) and was injected automatically. Activity was determined by measuring luminescence over 200 s in a scintillation counter (Lumat LB 9507, Berthold, Germany). Basal values of NADPH oxidase activity were subtracted from the experimental values and expressed as RLU/min/μg protein […]
(§7) In situ quantification of ROS species
(§8) Superoxide dismutase (SOD) and catalase (CAT) activity assays, and in situ detection of vascular ROS content. The activity of the enzymes, SOD and CAT, was determined in cell homogenates using assay kits according to the manufacturer's instructions (Cayman; Cat No 706002 and 707002 respectively). A unit of SOD was defined as the amount of enzyme […]
(§9) Similarly, a unit of CAT was […]
(§10) defined as the amount required to form 1.0 nmol of formaldehyde per min at 25 °C.S5

eNOS = eNOS phosphorylation (Western blot) in FFA-stressed cells
Source text: as §1, §2, §3
as §4, with “BSA. […]” for “BSA.”
HepG2 wells were lysed in RIPA buffer containing proteinase inhibitors and the total protein was quantified using BCA protein assay kit (Pierce Biotechnology). Proteins (30 μg/well) were denatured and separated by sodium dodecyl sulfate (SDS)-polyacrylamide gel electrophoresis and transferred to polyvinylidene difluoride (PVDF) membranes. Blots were blocked for 1 h in 5% semi-skimmed milk/Tris-Buffered Saline Tween-20 (TBS-T), probed with primary rabbit anti-phospho-protein kinase B (Akt), rabbit anti-Akt (Santa Cruz Biotechnology), rabbit polyclonal anti-phospho-eNOS (Cell Signaling) overnight at 4 °C followed by washing and incubation with the corresponding horse radish peroxidase-labelled secondary antibody for 1 h at room temperature. After washing with TBS-T, membranes were incubated with ECL reagent and visualized (Amersham Pharmacia Biotech). Densitometry analysis using ImageJ© (version 1.32j, NIH) was used to quantify the protein signal.S7 […]
(typically 0.01 M phosphate buffered saline pH 7.4) so that the final DMSO concentration is 1 % and the final test compound concentrations are 1, 3, 10, 30 and 100 µM. The experiment is performed at 37 °C and each concentration is incubated in 7 replicate wells. The plates are incubated for 2 h at 37 °C before the absorbance is measured at 620nm. Nicardipine (pH dependent) and pyrene (pH independent) are included as control compounds. The solubility is estimated from the concentration of test compound that produces an increase in absorbance above vehicle control (1% DMSO in buffer).

[1] = system: reactive oxygen species (ROS); assay: ROS production in FFA-stressed cells
Source text: as §1, §2, §3, §4
NO release assay and Quantification of ROS production […]
The auto-fluorescence was subtracted from each value. Cells were incubated with 10 μmol/L of the fluorescent probe: 2′-7′-dichlorodihydrofluorescein diacetate (CM-H2DCFDA, Sigma) for 30 min at 37 °C, and the level of fluorescence was determined (excitation 490 nm; emission 540 nm) using a microplate reader (BioTek).
as §6, §7, §8, §9
defined as the amount required to form 1.0 nmol of formaldehyde per min at 25 °C.S5 […]
HepG2 cells were incubated in serum-free DMEM containing 2% fatty acid-free BSA (control) or palmitate conjugated BSA (100 μmol/L) in the presence of HS-glycomimetics (1 or 10 μmol/L) for 24 h. The cells were incubated for 30 min in Hepes-buffered solution containing 10 μmol/L dihydroethidium (DHE), which intercalates with DNA in the presence of ROS and is detectable by fluorescence. Cells were counterstained with the nuclear stain DAPI at 0.3 μmol/L. In the following 24 h, the cell cultures were examined using a fluorescence microscope (Leica DMIRB). Sections were photographed and fluorescence was quantified using ImageJ. […]

NADPH oxidase = NADPH oxidase activity (lucigenin chemiluminescence) in cell homogenates; design: concentration or dose not given beside the values
Source text: as §1, §2, §3
as §4, with “BSA. […]” for “BSA.”
as §5, §6, §7, §8, §9, §10

| SMILES | NO production (nitric oxide (NO)) | eNOS phosphorylation (eNOS) | ROS production [1] | NADPH oxidase activity (NADPH oxidase) |
| --- | --- | --- | --- | --- |
| COC(=O)c1cc(OC[C@H](O)CO)ccc1OC[C@@H](O)CO (mixture of isomers) [α-2, methyl 5-((R)-2,3-dihydroxypropoxy)-2-((S)-2,3-dihydroxypropoxy)benzoate] | +46% | +286% | −36% | −26% |
| O=C(O)c1cc(OCC(O)CO)ccc1OCC(O)CO (mixture of isomers) [α-3, sodium 5-((R)-2,3-dihydroxypropoxy)-2-((±)-2,3-dihydroxypropoxy)benzoate] | +41% | +312% | −23% | −21% |
| O=C(O)c1cc(OCC(O)CO)ccc1OCC(O)CO (mixture of isomers) [β-3, sodium 5-((S)-2,3-dihydroxypropoxy)-2-((±)-2,3-dihydroxypropoxy)benzoate] | +52% | +294% | −19% | −27% |
